# Measured values from patent US6653342B2, “13-substituted milbemycin derivatives, their preparation and their use against insects and other pests” (Sankyo Company, Limited, priority 2000, dated 2003).
# Tests used:
# two-spotted spider mites = assay: Test on miticidal effect against two-spotted spider mites, cowpea leaf dip (Test Example 9); type: in vivo; conditions: for The death rate of mites (%): cowpea leaf dip, 2 days after treatment; for Death rate of hatchlings (%) / Death rate of mite eggs (%): 7 days after treatment; for Death rate of mite eggs (%): unhatched eggs; for The egg of two-spotted spider mite (7 days after) dead: number of dead eggs of total 20
# Method: The remainder of the test compound solution was removed and the treated leaf was allowed to stand in a Petri dish containing a sponge covered with a filter paper soaked in water. After the test compound solution on the leaf had dried, eggs of the mites were marked. The leaf was then allowed to stand at 25° C. on the Petri dish without a lid. Two days after treatment with the test compound, the death rate of mites (expressed as a percentage of the total number of mites) was determined. Seven to ten days after the treatment, the “death rate” of the mite eggs (expressed as the percentage of the total number of mite eggs which were unhatched) and the death rate of the hatchlings (expressed as the percentage of the total number of hatchlings which were killed) was estimated. The test was repeated at different concentrations of the test compound. “Untreated” in this test means the control test in which water was used instead of the test compound solution.
# cat fleas = assay: whole plant or invertebrate; type: in vivo; conditions: 1 ppm in bovine serum sucked through Parafilm at 37° C.; dead fleas after 48 hours; 20 fleas per group; corrected by control group
# Method: A test container wherein the living space of fleas was isolated from bovine serum by use of Parafilm™ (obtainable from Aldrich Chemical Co. Ltd.), which is usually used as an artificial skin, was prepared. A compound to be tested was added to the bovine serum in an amount sufficient for its concentration to be 1 ppm, and the fleas were allowed to suck the serum sample through the Parafilm™ at 37° C. Each group consisted of 20 fleas. […] By counting the dead fleas in a control group without a test compound, the mortality was corrected.
compound,measurement,setting,value
CC[C@H]1O[C@]2(CC[C@@H]1C)C[C@@H]1C[C@@H](C/C=C(\C)[C@H](OC(=O)C3(c4ccc(NC(=O)COC)cc4)CCCC3)[C@@H](C)/C=C/C=C3\CO[C@@H]4[C@H](O)C(C)=C[C@@H](C(=O)O1)[C@]34O)O2 [Test Compound Solution],The death rate of mites (%),two-spotted spider mites; 0.1 ppm,98.5%
same,two-spotted spider mite (2 days after) dead,"two-spotted spider mites; 0.1 ppm, number of dead mites of total 65",64
same,two-spotted spider mite (2 days after) agony,"two-spotted spider mites; 0.1 ppm, number of mites in agony of total 65",1
same,Death rate of hatchlings (%),two-spotted spider mites; 1 ppm,30%
same,Death rate of mite eggs (%),two-spotted spider mites; 1 ppm,0%
same,The death rate of mites (%),two-spotted spider mites; 1 ppm,100%
same,The egg of two-spotted spider mite (7 days after) dead,two-spotted spider mites; 1 ppm,0
same,two-spotted spider mite (2 days after) dead,"two-spotted spider mites; 1 ppm, number of dead mites of total 55",55
same,Death rate of hatchlings (%),two-spotted spider mites; 10 ppm,100%
same,Death rate of mite eggs (%),two-spotted spider mites; 10 ppm,25%
same,The death rate of mites (%),two-spotted spider mites; 10 ppm,100%
same,The egg of two-spotted spider mite (7 days after) dead,two-spotted spider mites; 10 ppm,5
same,two-spotted spider mite (2 days after) dead,"two-spotted spider mites; 10 ppm, number of dead mites of total 39",39
same,Death rate of hatchlings (%),two-spotted spider mites; 100 ppm,100%
same,Death rate of mite eggs (%),two-spotted spider mites; 100 ppm,90%
same,The death rate of mites (%),two-spotted spider mites; 100 ppm,100%
same,The egg of two-spotted spider mite (7 days after) dead,two-spotted spider mites; 100 ppm,18
same,two-spotted spider mite (2 days after) dead,"two-spotted spider mites; 100 ppm, number of dead mites of total 48",48
"CCC1OC2(CCC1C)CC1CC(CC=C(C)C(OC(=O)C3(c4ccc(NC(C)=O)cc4)CCCC3)C(C)C=CC=C3COC4C(O)C(C)=CC(C(=O)O1)C34O)O2 (centres unmarked) [Example 2, 13-[1-(4-Acetylaminophenyl)cyclopentanecarbonyloxy]-5-hydroxymilbemycin A4]",Mortality (%),cat fleas,95.0%
"CCC1OC2(CCC1C)CC1CC(CC=C(C)C(OC(=O)C3(c4ccc(NC(=O)CC#N)cc4)CCCC3)C(C)C=CC=C3COC4C(O)C(C)=CC(C(=O)O1)C34O)O2 (centres unmarked) [Example 3, 13-[1-(4-Cyanoacetylaminophenyl)cyclopentanecarbonyloxy]-5-hydroxymilbemycin A4]",Mortality (%),cat fleas,81.4%
"CCC1OC2(CCC1C)CC1CC(CC=C(C)C(OC(=O)C3(c4ccc(NC(=O)CO)cc4)CCCC3)C(C)C=CC=C3COC4C(O)C(C)=CC(C(=O)O1)C34O)O2 (centres unmarked) [Example 5, 13-[1-(4-Hydroxyacetylaminophenyl)cyclopentanecarbonyloxy]-5-hydroxy-milbemycin A4]",Mortality (%),cat fleas,74.4%
"COCC(=O)Nc1ccc(C2(C(=O)OC3C(C)=CCC4CC(CC5(CCC(C)C(C)O5)O4)OC(=O)C4C=C(C)C(O)C5OCC(=CC=CC3C)C45O)CCCC2)cc1 (centres unmarked) [Example 8, 13-[1-(4-Methoxyacetylaminophenyl)cyclopentanecarbonyloxy]-5-hydroxy-milbemycin A3]",Mortality (%),cat fleas,87.6%
"CC1=CC2C(=O)OC3CC(CC=C(C)C(OC(=O)C4(c5ccc(NS(C)(=O)=O)cc5)CCCC4)C(C)C=CC=C4COC(C1O)C42O)OC1(CCC(C)C(C)O1)C3 (centres unmarked) [Example 9, 13-[1-(4-Methanesulfonylaminophenyl)cyclopentanecarbonyloxy]-5-hydroxy-milbemycin A3]",Mortality (%),cat fleas,83.2%
"CCC1OC2(CCC1C)CC1CC(CC=C(C)C(OC(=O)C3(c4ccc(N)cc4)CCCC3)C(C)C=CC=C3COC4C(O)C(C)=CC(C(=O)O1)C34O)O2 (centres unmarked) [Example 1(b), 13-[1-(4-Aminophenyl)cyclopentanecarbonyloxy]-5-hydroxymilbemycin A4]",Mortality (%),cat fleas,95.0%
"CCC1OC2(CCC1C)CC1CC(CC=C(C)C(OC(=O)C3(c4ccc(NC(=O)CN(C)C(C)=O)cc4)CCCC3)C(C)C=CC=C3COC4C(O)C(C)=CC(C(=O)O1)C34O)O2 (centres unmarked) [Example 6, 13-{1-[4-(N-Acetyl-N-methylglycylamino)phenyl]cyclopentanecarbonyloxy}-5-hydroxymilbemycin A4]",Mortality (%),cat fleas,79.5%
"CCC1OC2(CCC1C)CC1CC(CC=C(C)C(OC(=O)C3(c4ccc(NS(C)(=O)=O)cc4)CCCC3)C(C)C=CC=C3COC4C(O)C(C)=CC(C(=O)O1)C34O)O2 (centres unmarked) [Example 4, 13-[1-(4-Methanesulfonylaminophenyl)cyclopentanecarbonyloxy]-5-hydroxy-milbemycin A4]",Mortality (%),cat fleas,100.0%
